# Where a name gives a salt, the structure may show the parent alone. Read-outs that look alike come from different tables or passages of the source.
# How the values were obtained:
# [1] = system: spontaneous hypertensive rats of the Milan (MHS); experiment: antihypertensive activity in spontaneous hypertensive rats (MHS), indirect tail-cuff method; format: in vivo, rat; details: 10 mg/Kg/os daily for ten days in Methocel 0.5% w/v, 7 rats; for SBP (SYSTOLIC BLOOD PRESSURE FALL IN SPONTANEOUS HYPERTENSIVE RATS (MHS)): controls 172 +/- 2.0; for HR (heart rate): controls 328 +/- 8.6
# [2] = target: T1, purified Na^+,K^+ -ATPase (Homo sapiens, UniProt P05023); experiment: biochemical
# T1 construct: receptor purified according to Jorghensen (Jorghensen P., BBA, 1974, 356, 36); from tissue; kidney outer medulla inferred from the cited Jorgensen method
# Description: (§1) To test the affinity for the receptor site of the Na^+,K^+ -ATPase and the inhibitory activity on the enzyme, the following tests were used: a) displacement of the specific ^3 H-ouabain binding from the Na^+,K^^+ -ATPase receptor purified according to Jorghensen (Jorghensen P., BBA, 1974, 356, 36) and Erdmann (Erdmann E. et al., Arzneim. Forsh., 1984, 34, 1314); b) inhibition of the activity of the purified Na^+,K^+ -ATPase measured as % of hydrolysis of ^32 P-ATP in presence and in absence of the tested compound (Mall F. et al., Biochem. Pharmacol., 1984, 33, 47).
# [3] = target: T2, Na^+,K^+ -ATPase receptor (Homo sapiens, UniProt P05023); experiment: displacement of the specific ^3 H-ouabain binding from the purified Na^+,K^+ -ATPase receptor; details: ^3 H-ouabain displacement, read-out: Binding ^3 H-Ouab. Displacement log IC50 (converted)
# T2 construct: receptor purified according to Jorghensen (Jorghensen P., BBA, 1974, 356, 36); from tissue; kidney outer medulla inferred from the cited Jorgensen method
# Description: as §1
# [4] = purified Na^+,K^+ -ATPase, ^32 P-ATP hydrolysis, read-out: Inhibitory Activity log IC50 (converted)
SMILES,SBP (SYSTOLIC BLOOD PRESSURE FALL IN SPONTANEOUS HYPERTENSIVE RATS (MHS)) [1],HR (heart rate) [1],"IC50 [2, 4]",IC50 [3],IC50 [2]
"C[C@]12CC[C@H](O)C[C@H]1CC[C@@H]1[C@@H]2CC[C@]2(C)[C@@](O)(c3ccoc3)CC[C@]12O [Comp. I-a, 17β(3-Furyl)-5β-androstane-3β,14β,17α-triol]",149 +/- 4.3 mm Hg,318 +/- 10.2 beats/min.,31.6 µM,1.58 µM,
"C[C@]12CC[C@H](OCCO)C[C@H]1CC[C@@H]1[C@@H]2CC[C@]2(C)[C@@](O)(c3ccoc3)CC[C@]12O [Comp. I-b, 3β-(2-Hydroxyethoxy)-17β-(3-furyl)-5β-androstane-14β,17α-diol]",,,25.1 µM,3.16 µM,
"C[C@]12CC[C@H](OCCCN)C[C@H]1CC[C@@H]1[C@@H]2CC[C@]2(C)[C@@](O)(c3ccoc3)CC[C@]12O [Comp. I-c, 3β-(3-Aminopropoxy), 17β-(3-furyl)-5β-androstane-14β,17α-diol]",,,7.94 µM,0.501 µM,
"C[C@]12CC[C@H](OCCN3CCCC3)C[C@H]1CC[C@@H]1[C@@H]2CC[C@]2(C)[C@@](O)(c3ccoc3)CC[C@]12O [Comp. I-d, 3β-(2-(1-Pyrrolidinyl)ethoxy)-17β-(3-furyl)-5β-androstane-14β,17α-diol]",158 +/- 2.5 mm Hg,325 +/- 9.3 beats/min.,15.8 µM,0.631 µM,
"CO[C@]1(c2ccoc2)CC[C@]2(O)[C@@H]3CC[C@@H]4C[C@@H](OCCN5CCCC5)CC[C@]4(C)[C@H]3CC[C@]12C [Comp. I-f, 3β-(2-(β1-Pyrrolidinyl)ethoxy)-17β-(3-furyl)-17α-methoxy-5β-androstan-14β-ol]",,,25.1 µM,5.01 µM,
C[C@]12CCC(=O)C[C@H]1CC[C@@H]1[C@@H]2CC[C@]2(C)[C@@](O)(c3ccoc3)CC[C@]12O [Comp. I-j],,,79.4 µM,3.98 µM,
"C[C@]12CCC(=NN=C(N)N)C[C@H]1CC[C@@H]1[C@@H]2CC[C@]2(C)[C@@](O)(c3ccoc3)CC[C@]12O [Comp. I-k, 3-Guanidinoimino-17β-(3-furyl)-5β-androstane-14β,17α-diol]",,,15.8 µM,1 µM,
"C[C@]12CC[C@H](O)C[C@H]1CC[C@@H]1[C@@H]2CC[C@]2(C)[C@@](O)(c3ccnnc3)CC[C@]12O [Comp. I-n, 17β-(4-Pyridazinyl)-5β-androstane-3β,14β,17α-triol]",,,25.1 µM,2.51 µM,
"C[C@]12CC[C@H](SCCCN)C[C@H]1CC[C@@H]1[C@@H]2CC[C@@]2(C)[C@@]13O[C@@H]3C[C@]2(O)c1ccoc1 [Comp. I-r, 3β-(3-Aminopropylthio)-14β,15β-epoxy-17β-(3-furyl)-5β-androstan-17α-ol oxalate]",154 +/- 2.4 mm Hg,320 +/- 9.6 beats/min.,31.6 µM,3.98 µM,
"C[C@]12CC[C@H](OCCOCCN3CCCC3)C[C@H]1CC[C@@H]1[C@@H]2CC[C@]2(C)[C@@](O)(c3ccoc3)CC[C@]12O [Comp. I-w, 3β-(2-(2-(1-Pyrrolidinyl)ethoxy)ethoxy)-17β-(3-furyl)-5β-androstane-14β,17α-diol]",,,3.98 µM,0.631 µM,
"CNCCO[C@H]1CC[C@@]2(C)[C@H](CC[C@@H]3[C@@H]2CC[C@]2(C)[C@@](O)(c4ccoc4)CC[C@]32O)C1 [Comp. I-x, 3β-(2-Methylaminoethoxy)-17β-(3-furyl)-5β-androstane 14β,17α-diol]",,,10 µM,0.501 µM,
"C[C@]12CC[C@H](OCCCNC(=N)N)C[C@H]1CC[C@@H]1[C@@H]2CC[C@]2(C)[C@@](O)(c3ccoc3)CC[C@]12O [Comp. I-y, 3β(3-Guanidinopropoxy)-17β-(3-furyl)-5β-androstane-14β,17α-diol]",,,,0.501 µM,6.31 µM
"C[C@]12CC[C@H](OCC(N)CN)C[C@H]1CC[C@@H]1[C@@H]2CC[C@]2(C)[C@@](O)(c3ccoc3)CC[C@]12O (stereo partly drawn) [Comp. I-z, 3β-(2,3-Diaminopropoxy)-17β-(3-furyl)-5β-androstane-14β,17α-diol]",,,,0.631 µM,5.01 µM
"C[C@]12CC[C@H](O)C[C@H]1CC[C@@H]1[C@@H]2CC[C@]2(C)[C@@](O)(C3=CC(=O)OC3)CC[C@]12O [Ref. Comp., 3β,14β,17α-trihydroxy-5β-card-20(22)-enolide, reference compound]",,334 +/- 11.7 beats/min.,,,

# Source: patent US5591734A, “17-(3-furyl)-5β, 14β-androstane derivatives active on the cardiovascular system, processes for their preparation and pharmaceutical compositions containing same” (Sigma-Tau Industrie Farmaceutiche Riunite S.p.A., priority 1992, dated 1997)
